Test results reported in patent US12281323B2, “Treatment for restoring ureagenesis in carbamoyl phosphate synthetase 1 deficiency” (The Regents of the University of California, priority 2019, dated 2025).

Tested on: conditional CPS1 knock out mouse model
Assay: sAAV efficacy in vivo in conditional CPS1 knock out mouse model (floxed Cps1 removed by AAV-Cre)
Conditions: sAAV-treated mice additionally treated with n-carglumic acid
Excerpt: To illustrate the ability of sAAVs to treat CPS1 deficiency, sAAVs encoding human codon optimized CPS1 (hcoCPS1) driven by the constitutive CAG promoter were generated and tested in a conditional CPS1 knock out mouse model (see, e.g. Khoja et al., Molecular Genetics and Metabolism. 2018 Aug. 1; 124(4):243-253). […] Currently, there is no effective therapy for human patients with CPS1 disorders. Our data from this gene therapy model in mice having knocked out endogenous CPS1 expression provides evidence that this treatment can address this unmet need for these patients.
In illustrative embodiments of the invention, to test sAAV efficacy in vivo, a conditional CPS1 knock out mouse model was used. These mice contain biallelic floxed Cps1 which is removed by treatment with an AAV expressing Cre recombinase (AAV-Cre). […] Treatment with the small molecule n-carglumic acid, an analog of NAG, the allosteric activator of CPS1, further extended lifespan (all mice >120 days; p<0.01) and maintained near normal plasma ammonia (baseline: 138.87 μM±86.5; post-treatment: 217.8 μM±69.9; p=0.15).

With NC(=O)N[C@@H](CCC(=O)O)C(=O)O [n-carglumic acid] the lifespan (all mice, p<0.01) was over 120 days and the plasma ammonia post-treatment (±69.9, baseline 138.87 μM±86.5, p=0.15) was 217.8 µM.
